The source of these data is patent publication US20070166547A1, “Use of a layer consisting of hydrophobic linear, or two-dimensional polycyclic aromatics as a barrier layer or an encapsulation and electric components constructed with a layer of this type and comprising organic polymers” (priority 2003, published 2007).

The data set in a line: Chronic toxicity, rectal suppositories: biochemical indexes of blood serum. The following applies: male rats, 1 month.

Molecules are shown by their SMILES.

Procedure: The experiments were conducted on inbred rats. The experimental animals were selected in groups by a method of random sampling taking into account the body mass as a determining index; 24 males or 24 females for one preparation from compounds 2, 15, 23, 34, 37 investigated in one dose.
Two doses of preparations used in the experiments: 50 mg/kg and 500 mg/kg. Before the administration, the suppositories were softened by heating in a glass water bath at a temperature of 38-39° C., the soft mass was collected in tuberculin syringe in a volume of 1 ml, a needle with oliva was attached to the syringe, and the preparatory mass was introduced into the rectum of the animal for a depth of 1.5-2.0 cm. The animals of the control group were administered with sterile medical liquid paraffin in a volume corresponding to the volume of the investigated suppository. A complete course of administration of drugs to the animals was two months. A complex of laboratory diagnostic investigations was carried out one month after the beginning of the administration of the preparation to the animal—in a middle of the course (8 animals), two months after ending the course (8 animals) and three months after ending the recovery period of one month (8 animals). The mass of the body of the rats in the first month of administration of the preparation was determined weekly, and then once in two weeks. On the basis of the dynamics of an index of the mass of the animal body, the volume of preparation being administered was corrected taking into account the test dose.

With `Nc1ccnc2c(=O)n([C@@H]3O[C@H](CO)[C@@H](O)[C@H]3O)[nH]c(=O)c12` [Compound 2, 4-amino-7-(β-D-ribofuranosile)pyrido[2,3-d]-6H-pyridazine-5,8-dione], where the note is “suppositories 50 mg/kg”, the ALT is recorded as 10.84 ± 2.02 unit/l, the AST turned out to be 20.41 ± 3.06 unit/1, the Alkalinous phosphatase was determined as 42.12 ± 4.23 unit/1 and the Bilirubin is 44.38 ± 4.12. For the setting “suppositories 50 mg/kg”, the Cholesterol is 2.77 ± 0.71 mmol/L, the Creatinine amounted to 47.38 ± 3.26 mkmol/l, the Glucose came to 9.85 ± 0.37 mM and the Total protein amounted to 87.34 ± 5.56 g/L. This compound also gave a Urea (suppositories 50 mg/kg) of 11.02 ± 0.73. For the setting “suppositories 500 mg/kg”, this compound registered an ALT of 11.23 ± 1.70 unit/l, an AST of 20.13 ± 2.95 unit/1, an Alkalinous phosphatase of 43.4 ± 2.12 unit/1 and a Bilirubin of 42.56 ± 7.56. Further, where the note is “suppositories 500 mg/kg”, the Cholesterol came to 2.96 ± 0.52 mmol/L, the Creatinine was 49.87 ± 8.12 mkmol/l, the Glucose is 10.2 ± 0.74 mM and the Total protein was determined as 70.84 ± 7.47 g/L. The compound further registered a Urea (suppositories 500 mg/kg) of 11.30 ± 0.80.
